Test results published in PMC10175918 (Communications Biology, 2023).
Where two headings read alike, the source gives them in different places.

How the values were obtained:
Test in all cases: TGFα-shedding assay-based GPCR screening with chimeric Gα subunit proteins
Type in all cases: cell-based
[1] = biological target: T1, 348 GPCRs (Homo sapiens, UniProt Q9NS67); conditions: 10µM, Favipiravir 100μM
T1 construct: expressed in transfected cells; host or cells: HEK293A

[2] = biological target: T2, 348 GPCRs (Homo sapiens, UniProt O60883); conditions: 10µM, Favipiravir 100μM
T2 construct: expressed in transfected cells; host or cells: HEK293A
T2 sequence (O60883 26-481): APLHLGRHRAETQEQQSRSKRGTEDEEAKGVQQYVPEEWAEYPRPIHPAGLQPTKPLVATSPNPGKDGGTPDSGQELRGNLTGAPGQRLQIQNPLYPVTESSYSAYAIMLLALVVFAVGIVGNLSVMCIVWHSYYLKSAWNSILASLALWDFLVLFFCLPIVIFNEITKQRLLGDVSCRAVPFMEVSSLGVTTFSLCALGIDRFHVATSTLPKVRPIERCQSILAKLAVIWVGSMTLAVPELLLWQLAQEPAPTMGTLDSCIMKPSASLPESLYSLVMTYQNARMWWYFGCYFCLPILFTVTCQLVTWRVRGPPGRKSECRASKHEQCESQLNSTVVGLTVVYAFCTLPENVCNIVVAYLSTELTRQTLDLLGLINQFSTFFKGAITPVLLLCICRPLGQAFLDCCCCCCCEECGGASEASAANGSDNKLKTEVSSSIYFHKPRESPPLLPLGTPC

[3] = biological target: T3, 348 GPCRs (Homo sapiens, UniProt Q13255); conditions: 10µM, Favipiravir 100μM
T3 construct: expressed in transfected cells; host or cells: HEK293A
T3 sequence (Q13255 19-1194): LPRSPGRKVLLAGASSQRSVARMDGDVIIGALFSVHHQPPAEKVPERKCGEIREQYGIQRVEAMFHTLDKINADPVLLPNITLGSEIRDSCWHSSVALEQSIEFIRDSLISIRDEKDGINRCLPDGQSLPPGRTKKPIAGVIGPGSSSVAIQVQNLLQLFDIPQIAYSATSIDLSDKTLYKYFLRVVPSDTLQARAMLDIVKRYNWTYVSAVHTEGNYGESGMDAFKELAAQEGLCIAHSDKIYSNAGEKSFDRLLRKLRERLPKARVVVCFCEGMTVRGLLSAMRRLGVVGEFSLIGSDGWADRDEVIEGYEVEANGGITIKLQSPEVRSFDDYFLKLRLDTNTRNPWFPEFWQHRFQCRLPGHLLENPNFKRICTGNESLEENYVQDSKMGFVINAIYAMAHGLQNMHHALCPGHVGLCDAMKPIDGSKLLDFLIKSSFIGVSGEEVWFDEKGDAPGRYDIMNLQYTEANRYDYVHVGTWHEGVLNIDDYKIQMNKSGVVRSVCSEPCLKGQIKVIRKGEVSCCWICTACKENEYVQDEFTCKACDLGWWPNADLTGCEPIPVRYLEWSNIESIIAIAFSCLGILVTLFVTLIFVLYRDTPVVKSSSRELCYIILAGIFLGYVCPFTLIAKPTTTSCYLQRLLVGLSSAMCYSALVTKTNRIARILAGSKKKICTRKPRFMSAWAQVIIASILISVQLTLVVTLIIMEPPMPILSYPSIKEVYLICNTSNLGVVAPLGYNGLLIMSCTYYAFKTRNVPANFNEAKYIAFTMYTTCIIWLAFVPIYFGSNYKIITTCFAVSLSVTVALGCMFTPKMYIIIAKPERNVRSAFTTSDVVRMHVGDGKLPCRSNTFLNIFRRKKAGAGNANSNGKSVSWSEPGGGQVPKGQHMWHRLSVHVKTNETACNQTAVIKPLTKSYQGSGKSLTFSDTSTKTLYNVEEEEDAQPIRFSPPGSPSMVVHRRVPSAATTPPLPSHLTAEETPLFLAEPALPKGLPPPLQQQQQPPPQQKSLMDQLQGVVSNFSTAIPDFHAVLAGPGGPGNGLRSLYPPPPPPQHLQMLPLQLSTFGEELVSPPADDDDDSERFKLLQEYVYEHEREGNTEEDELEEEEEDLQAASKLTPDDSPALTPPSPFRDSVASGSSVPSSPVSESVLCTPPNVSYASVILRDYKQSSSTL

[4] = biological target: T4, 348 GPCRs (Homo sapiens, UniProt P25100)
T4 construct: expressed in transfected cells; host or cells: HEK293A
T4 sequence (P25100 1-572): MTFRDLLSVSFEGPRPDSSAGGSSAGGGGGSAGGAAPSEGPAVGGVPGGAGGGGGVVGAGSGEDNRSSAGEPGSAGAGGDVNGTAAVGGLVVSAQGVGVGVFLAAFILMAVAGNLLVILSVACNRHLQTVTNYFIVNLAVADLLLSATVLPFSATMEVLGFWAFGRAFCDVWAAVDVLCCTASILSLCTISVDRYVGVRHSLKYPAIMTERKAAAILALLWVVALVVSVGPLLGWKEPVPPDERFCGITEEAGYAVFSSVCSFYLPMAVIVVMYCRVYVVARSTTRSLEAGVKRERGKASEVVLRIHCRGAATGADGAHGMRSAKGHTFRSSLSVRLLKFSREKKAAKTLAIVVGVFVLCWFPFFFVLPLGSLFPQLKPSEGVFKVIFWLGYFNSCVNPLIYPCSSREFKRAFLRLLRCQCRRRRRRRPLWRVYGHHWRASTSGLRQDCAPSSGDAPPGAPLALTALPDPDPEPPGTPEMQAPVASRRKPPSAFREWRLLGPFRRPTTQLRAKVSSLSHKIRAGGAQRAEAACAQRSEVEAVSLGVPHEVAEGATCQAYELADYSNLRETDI

[5] = biological target: T5, 348 GPCRs (Homo sapiens, UniProt Q9BY21); conditions: 10µM, Favipiravir 100μM
T5 construct: expressed in transfected cells; host or cells: HEK293A
T5 sequence (Q9BY21 whole entry): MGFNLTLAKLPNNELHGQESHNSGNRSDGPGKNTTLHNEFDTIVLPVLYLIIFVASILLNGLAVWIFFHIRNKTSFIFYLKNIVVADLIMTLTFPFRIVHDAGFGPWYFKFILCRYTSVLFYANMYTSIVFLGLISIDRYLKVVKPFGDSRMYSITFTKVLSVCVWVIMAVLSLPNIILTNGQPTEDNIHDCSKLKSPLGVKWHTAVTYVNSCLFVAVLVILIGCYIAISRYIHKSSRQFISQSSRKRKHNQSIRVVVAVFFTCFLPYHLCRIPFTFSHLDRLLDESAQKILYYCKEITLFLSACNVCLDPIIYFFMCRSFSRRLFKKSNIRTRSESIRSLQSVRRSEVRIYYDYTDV

[6] = biological target: T6, 348 GPCRs (Homo sapiens, UniProt O43194)
T6 construct: expressed in transfected cells; host or cells: HEK293A
T6 sequence (O43194 1-453): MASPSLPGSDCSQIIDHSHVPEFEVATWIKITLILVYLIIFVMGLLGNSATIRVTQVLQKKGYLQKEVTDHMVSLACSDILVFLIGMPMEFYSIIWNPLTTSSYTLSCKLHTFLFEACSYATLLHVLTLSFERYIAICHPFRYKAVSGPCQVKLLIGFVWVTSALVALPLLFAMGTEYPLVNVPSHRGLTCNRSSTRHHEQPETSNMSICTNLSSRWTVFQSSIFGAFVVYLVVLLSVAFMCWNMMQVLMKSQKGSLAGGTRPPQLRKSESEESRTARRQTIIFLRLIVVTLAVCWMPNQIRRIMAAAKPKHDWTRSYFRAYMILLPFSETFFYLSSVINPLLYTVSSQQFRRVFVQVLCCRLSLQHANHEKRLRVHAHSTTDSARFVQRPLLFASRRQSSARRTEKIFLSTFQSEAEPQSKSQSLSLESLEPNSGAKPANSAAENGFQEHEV

[7] = biological target: T7, 348 GPCRs (Homo sapiens, UniProt P49190); conditions: 10µM, Favipiravir 100μM
T7 construct: expressed in transfected cells; host or cells: HEK293A
T7 sequence (P49190 25-550): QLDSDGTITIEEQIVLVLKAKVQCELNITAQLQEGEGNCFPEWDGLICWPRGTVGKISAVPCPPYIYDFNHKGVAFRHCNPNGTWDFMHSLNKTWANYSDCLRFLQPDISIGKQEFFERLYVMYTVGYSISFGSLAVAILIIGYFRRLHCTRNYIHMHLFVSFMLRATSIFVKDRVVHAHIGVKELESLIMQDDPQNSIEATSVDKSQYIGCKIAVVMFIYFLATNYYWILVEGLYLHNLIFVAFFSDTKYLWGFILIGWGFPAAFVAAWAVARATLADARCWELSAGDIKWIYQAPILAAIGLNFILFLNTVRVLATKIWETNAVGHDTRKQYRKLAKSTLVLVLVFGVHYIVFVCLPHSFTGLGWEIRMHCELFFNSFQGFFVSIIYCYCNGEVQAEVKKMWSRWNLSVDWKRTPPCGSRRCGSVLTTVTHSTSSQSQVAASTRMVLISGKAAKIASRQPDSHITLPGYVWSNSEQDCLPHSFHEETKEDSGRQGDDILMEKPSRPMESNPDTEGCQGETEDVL

[8] = biological target: T8, 348 GPCRs (Homo sapiens, UniProt P35414); conditions: 10µM, Favipiravir 100μM
T8 sequence (P35414 1-380): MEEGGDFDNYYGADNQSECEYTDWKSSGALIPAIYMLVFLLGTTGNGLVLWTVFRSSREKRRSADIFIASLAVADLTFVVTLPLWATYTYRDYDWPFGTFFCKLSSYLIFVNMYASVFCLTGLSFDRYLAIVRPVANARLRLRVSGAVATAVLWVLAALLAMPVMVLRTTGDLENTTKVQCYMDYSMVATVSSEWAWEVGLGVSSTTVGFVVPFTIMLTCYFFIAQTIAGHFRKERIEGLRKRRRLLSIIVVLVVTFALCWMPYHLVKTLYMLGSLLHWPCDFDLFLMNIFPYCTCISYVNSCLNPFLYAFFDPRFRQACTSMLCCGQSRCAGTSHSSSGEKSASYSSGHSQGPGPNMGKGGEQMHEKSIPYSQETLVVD

[9] = GPR27 (G Protein-Coupled Receptor 27), read-out: % GPCR activation compared to TPA
[10] = GPR37L1 (G Protein-Coupled Receptor 37 Like 1), read-out: % GPCR activation compared to TPA
[11] = GRM1 (glutamate receptor, metabotropic 1), read-out: % GPCR activation compared to TPA
[12] = GPCR α1D (adrenoceptor alpha 1D), read-out: % GPCR activation compared to TPA
[13] = GPR87 (G Protein-Coupled Receptor 87), read-out: % GPCR activation compared to TPA
[14] = GPCR GPR39 (G Protein-Coupled Receptor 39), read-out: % GPCR activation compared to TPA
[15] = PTH2R (parathyroid hormone 2 receptor), read-out: % GPCR activation compared to TPA
[16] = APLNR (apelin receptor), read-out: % GPCR activation compared to TPA
[17] = read-out: % GPCR activation compared to TPA, GPR27 (G Protein-Coupled Receptor 27)
[18] = read-out: % GPCR activation compared to TPA, GPR37L1 (G Protein-Coupled Receptor 37 Like 1)
[19] = read-out: % GPCR activation compared to TPA, GRM1 (glutamate receptor, metabotropic 1)
[20] = read-out: % GPCR activation compared to TPA, GPCR α1D (adrenoceptor alpha 1D)
[21] = read-out: % GPCR activation compared to TPA, GPR87 (G Protein-Coupled Receptor 87)
[22] = read-out: % GPCR activation compared to TPA, GPCR GPR39 (G Protein-Coupled Receptor 39)
[23] = read-out: % GPCR activation compared to TPA, PTH2R (parathyroid hormone 2 receptor)
[24] = read-out: % GPCR activation compared to TPA, APLNR (apelin receptor)

T1 sequence (Q9NS67 whole entry): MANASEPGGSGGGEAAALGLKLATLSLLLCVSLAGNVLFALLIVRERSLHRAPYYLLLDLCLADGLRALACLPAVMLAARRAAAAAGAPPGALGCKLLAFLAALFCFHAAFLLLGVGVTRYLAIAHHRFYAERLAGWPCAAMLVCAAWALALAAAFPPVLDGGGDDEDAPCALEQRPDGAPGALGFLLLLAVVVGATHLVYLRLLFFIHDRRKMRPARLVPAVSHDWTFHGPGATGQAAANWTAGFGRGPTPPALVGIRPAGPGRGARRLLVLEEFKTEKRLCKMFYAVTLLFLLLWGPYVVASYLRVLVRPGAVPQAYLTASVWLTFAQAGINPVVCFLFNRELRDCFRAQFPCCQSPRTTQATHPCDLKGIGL

SMILES | activation at 100 µM [1, 9] [%] | activation at 10 µM [2, 10] [%] | activation at 10 µM [3, 11] [%] | activation at 10 µM [4, 12] [%] | activation at 100 µM [5, 13] [%] | activation at 10 µM [6, 14] [%] | activation at 100 µM [7, 15] [%] | activation at 10 µM [8, 16] [%] | activation at 100 µM [1, 17] [%] | activation at 10 µM [2, 18] [%] | activation at 10 µM [3, 19] [%] | activation at 10 µM [4, 20] [%] | activation at 100 µM [5, 21] [%] | activation at 10 µM [6, 22] [%] | activation at 100 µM [7, 23] [%] | activation at 10 µM [8, 24] [%] | activation at 100 µM ([4]; GPCR α1D (adrenoceptor alpha 1D), 100μM, read-out: % GPCR activation compared to TPA) [%] | activation at 100 µM ([6]; GPCR GPR39 (G Protein-Coupled Receptor 39), 100μM, read-out: % GPCR activation compared to TPA) [%]
N#C[C@@]1(c2ccc3c(N)ncnn23)O[C@H](CO)[C@@H](O)[C@H]1O [GS441524] | 1.65 | -2.03 | -0.549 | -1.11 | -3.93 | -9.02 | -1.76 | -3.07 |  |  |  |  |  |  |  |  |  | 
CC(C)OC(=O)[C@H](C)N[P@](=O)(OC[C@H]1O[C@@H](n2ccc(=O)[nH]c2=O)[C@](C)(F)[C@@H]1O)Oc1ccccc1 [sofosbuvir] |  |  |  |  |  |  |  |  | 1.94 | -1.91 | 0.735 | 0.0197 | 2.98 | -4.93 | -1.19 | -5.57 |  | 
CCC(CC)COC(=O)[C@H](C)N[P@](=O)(OC[C@H]1O[C@@](C#N)(c2ccc3c(N)ncnn23)[C@H](O)[C@@H]1O)Oc1ccccc1 [remdesivir] |  |  |  |  |  |  |  |  | 0.0845 | -2.18 | -0.568 | 1.67 | -0.159 | 2.25 | 0.518 | 3.68 |  | 
CC(C)C(=O)OC[C@H]1O[C@@H](n2ccc(NO)nc2=O)[C@H](O)[C@@H]1O [molnupiravir] | -0.612 | -1.63 | -0.761 | 0.273 | 0.11 | -11.5 | -0.481 | -5.92 |  |  |  |  |  |  |  |  |  | 
NC(=O)c1nc(F)cnc1O [favipiravir, 6-fluoro-3-hydroxy-2-pyrazinecarboxamide] | -0.296 | -2.32 | -0.946 |  | -4.67 |  | 0.392 | -2.25 |  |  |  |  |  |  |  |  | 1.16 | -6.36
